From US20190292179A1 (BRISTOL-MYERS SQUIBB COMPANY, priority 2016, published 2019)

Columns and labels:
[1] = target: HIS-TGFβR2 WT (Homo sapiens, UniProt P37173); assay: HTRF probe-displacement assay with HIS-TGFβR2 WT; assay type: binding; settings: 1 nM HIS-TGFβR2 WT, labeled probe at Kd, 1 hour at room temperature
Experimental: The reaction is incubated for 1 hour at room temperature and the HTRF signal was measured on an Envision plate reader (Ex: 340 nm; Em: 520 nm/495 nm). Inhibition data were calculated by comparison to no enzyme control reactions for 100% inhibition and vehicle-only reactions for 0% inhibition. The final concentration of reagents in the assay are 1 nM HIS-TGFβR1 T204D or HIS-TGFβR2 WT, 0.2 nM anti-HIS detection antibody, labeled small molecule probe (at Kd) and 0.5% DMSO. Dose response curves were generated to determine the concentration required inhibiting 50% of kinase activity (IC50). Compounds were dissolved at 10 mM in dimethylsulfoxide (DMSO) and evaluated at eleven concentrations. IC50 values were derived by non-linear regression analysis.

[2] = target: T1, HIS-TGFβR1 T204D (Homo sapiens, UniProt P36897, T204D); assay: HTRF probe-displacement assay with HIS-TGFβR1 T204D; assay type: binding; settings: 1 nM HIS-TGFβR1 T204D, labeled probe at Kd, 1 hour at room temperature
T1 sequence (P36897 34-503 T204D): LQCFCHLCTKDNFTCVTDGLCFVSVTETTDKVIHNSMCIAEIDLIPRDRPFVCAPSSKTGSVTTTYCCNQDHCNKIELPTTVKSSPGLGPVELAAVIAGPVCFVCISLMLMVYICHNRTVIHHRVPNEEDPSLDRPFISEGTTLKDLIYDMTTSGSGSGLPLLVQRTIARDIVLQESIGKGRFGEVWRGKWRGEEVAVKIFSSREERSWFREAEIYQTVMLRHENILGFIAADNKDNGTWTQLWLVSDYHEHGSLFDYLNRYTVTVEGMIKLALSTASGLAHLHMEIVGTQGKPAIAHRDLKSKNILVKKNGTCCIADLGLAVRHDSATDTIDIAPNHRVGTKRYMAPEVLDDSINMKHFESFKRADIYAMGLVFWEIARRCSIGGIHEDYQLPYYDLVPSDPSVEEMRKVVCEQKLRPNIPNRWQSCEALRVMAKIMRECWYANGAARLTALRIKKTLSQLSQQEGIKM
In short: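 Binding read as HTRF probe displacement with 1 nM HIS-tagged kinase, 0.2 nM anti-HIS antibody, labelled probe at Kd and 0.5% DMSO, 1 h at room temperature (Ex 340, Em 520/495 nm). Eleven-point dose response normalised to no-enzyme and vehicle controls; IC50 from non-linear regression.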

Sequence of HIS-TGFβR2 WT (P37173 23-567): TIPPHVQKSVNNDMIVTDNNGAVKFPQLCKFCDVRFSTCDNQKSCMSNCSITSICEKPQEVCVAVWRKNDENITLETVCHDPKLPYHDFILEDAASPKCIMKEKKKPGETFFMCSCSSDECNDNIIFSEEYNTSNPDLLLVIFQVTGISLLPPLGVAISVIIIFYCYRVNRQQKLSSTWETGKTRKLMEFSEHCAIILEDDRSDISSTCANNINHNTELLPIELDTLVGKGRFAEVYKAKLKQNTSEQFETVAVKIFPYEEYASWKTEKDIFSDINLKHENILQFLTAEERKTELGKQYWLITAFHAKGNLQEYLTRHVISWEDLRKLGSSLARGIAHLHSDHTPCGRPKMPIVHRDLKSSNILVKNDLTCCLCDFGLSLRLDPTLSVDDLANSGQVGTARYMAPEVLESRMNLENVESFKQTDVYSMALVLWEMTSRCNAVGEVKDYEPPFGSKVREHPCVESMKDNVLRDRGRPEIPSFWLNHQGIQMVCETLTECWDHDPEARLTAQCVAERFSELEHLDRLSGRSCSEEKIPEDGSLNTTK

Structure (SMILES)	IC50 [1] [µM]	IC50 [2] [µM]
N#CCn1cc(-c2ccc3ncc(C#N)n3c2)c(-c2ccc(F)c(Cl)c2)n1 [Example 43, 6-(3-(3-chloro-4-fluorophenyl)-1-(cyanomethyl)-1H-pyrazol-4-yl)imidazo[1,2-a]pyridine-3-carbonitrile]	0.463	0.001
N#Cc1cnc2ccc(-c3cn(CCO)nc3-c3ccc(F)c(Cl)c3)cn12 [Example 44, 6-(3-(3-chloro-4-fluorophenyl)-1-(2-hydroxyethyl)-1H-pyrazol-4-yl)imidazo[1,2-a]pyridine-3-carbonitrile]	0.369	0.002
Clc1ccc(-c2n[nH]cc2-c2ccc3nccn3c2)cc1 [Example 45, 6-(3-(4-chlorophenyl)-1H-pyrazol-4-yl)imidazo[1,2-a]pyridine]	4.23	0.112
N#Cc1cnc2ccc(-c3c[nH]nc3-c3ccc(Cl)cc3)cn12 [Example 46, 6-(3-(4-chlorophenyl)-1H-pyrazol-4-yl)imidazo[1,2-a]pyridine-3-carbonitrile]	0.214	0.092
NC(=O)c1cnc2ccc(-c3c[nH]nc3-c3ccc(Cl)cc3)cn12 [Example 47, 6-(3-(4-chlorophenyl)-1H-pyrazol-4-yl)imidazo[1,2-a]pyridine-3-carboxamide]	0.709	0.004
Cc1cc(-c2n[nH]cc2-c2ccc3nccn3c2)ccc1F [Example 48, 6-(3-(4-fluoro-3-methylphenyl)-1H-pyrazol-4-yl)imidazo[1,2-a]pyridine]	4.12	0.002
Cc1cc(-c2n[nH]cc2-c2ccc3ncc(C#N)n3c2)ccc1F [Example 49, 6-(3-(4-fluoro-3-methylphenyl)-1H-pyrazol-4-yl)imidazo[1,2-a]pyridine-3-carbonitrile]	0.104	0.001
CCOC(=O)c1cnc2ccc(-c3cn(C)nc3-c3cccc(C)n3)cn12 [Example 51, ethyl 6-(1-methyl-3-(6-methylpyridin-2-yl)-1H-pyrazol-4-yl)imidazo[1,2-a]pyridine-3-carboxylate]	2.23	0.001
Fc1ccc(-c2n[nH]cc2-c2ccc3nccn3n2)cc1 [Example 55, 6-(3-(4-fluorophenyl)-1H-pyrazol-4-yl)imidazo[1,2-b]pyridazine]	4.93	0.006
Fc1ccc(-c2n[nH]cc2-c2ccc3ncc(F)n3c2)cc1 [Example 56, 3-fluoro-6-(3-(4-fluorophenyl)-1H-pyrazol-4-yl)imidazo[1,2-a]pyridine]	0.533	0.007
CCOC(=O)c1cnc2ccc(-c3c[nH]nc3-c3ccc(F)cc3)cn12 [Example 57, ethyl 6-(3-(4-fluorophenyl)-1H-pyrazol-4-yl)imidazo[1,2-a]pyridine-3-carboxylate]	3.71	0.003
CC(C)(O)c1cnc2ccc(-c3c[nH]nc3-c3ccc(F)cc3)cn12 [Example 59, 2-(6-(3-(4-fluorophenyl)-1H-pyrazol-4-yl)imidazo[1,2-a]pyridin-3-yl)propan-2-ol]	5.34	0.241
N#Cc1cnc2ccc(-c3cn(CC(F)F)nc3-c3ccc(F)c(Cl)c3)cn12 [Example 61, 6-(3-(3-chloro-4-fluorophenyl)-1-(2,2-difluoroethyl)-1H-pyrazol-4-yl)imidazo[1,2-a]pyridine-3-carbonitrile]	2.28	0.007
Cc1cccc(-c2n[nH]c(C)c2-c2ccc3ncc(C(N)=O)n3c2)n1 [Example 64, 6-(5-methyl-3-(6-methylpyridin-2-yl)-1H-pyrazol-4-yl)imidazo[1,2-a]pyridine-3-carboxamide]	0.012	0.001
Cc1cccc(-c2nn(C)c(C)c2-c2ccc3ncc(C(N)=O)n3c2)n1 [Example 65, 6-(1,5-dimethyl-3-(6-methylpyridin-2-yl)-1H-pyrazol-4-yl)imidazo[1,2-a]pyridine-3-carboxamide]	0.194	0.001
Cc1[nH]nc(-c2cccc(F)n2)c1-c1ccc2ncc(C#N)n2c1 [Example 66, 6-(3-(6-fluoropyridin-2-yl)-5-methyl-1H-pyrazol-4-yl)imidazo [1,2-a]pyridine-3-carbonitrile]	0.277	0.001

Structure (SMILES)	IC50 [1] [µM]	IC50 [2] [µM]
CC(C)c1[nH]nc(-c2ccc(F)cc2)c1-c1ccc2ncc(C#N)n2c1 [Example 67, 6-(3-(4-fluorophenyl)-5-isopropyl-1H-pyrazol-4-yl)imidazo[1,2-a]pyridine-3-carbonitrile]	11.1	0.004
CC(C)c1[nH]nc(-c2ccc(F)cc2)c1-c1ccc2ncc(C(N)=O)n2c1 [Example 68, 6-(3-(4-fluorophenyl)-5-isopropyl-1H-pyrazol-4-yl) imidazo [1,2-a]pyridine-3-carboxamide]	0.176	0.001
CC(C)c1[nH]nc(-c2ccc(F)cc2)c1-c1ccc2[nH]ncc2c1 [Example 70, 5-(3-(4-fluorophenyl)-5-isopropyl-1H-pyrazol-4-yl)-1H-indazole]	6.1	0.001
CC(C)c1c(-c2ccc3ncc(C(N)=O)n3c2)c(-c2ccc(F)cc2)nn1C [Example 72]	0.963	0.002
CC(C)c1[nH]nc(-c2ccc(Cl)cc2)c1-c1ccc2ncc(C(N)=O)n2c1 [Example 76, 6-(3-(4-chlorophenyl)-5-isopropyl-1H-pyrazol-4-yl)imidazo[1,2-a]pyridine-3-carboxamide]	6.59	0.001
Cc1cc(-c2n[nH]c(C(C)C)c2-c2ccc3ncc(C#N)n3c2)ccc1F [Example 78, 6-(3-(4-fluoro-3-methylphenyl)-5-isopropyl-1H-pyrazol-4-yl)imidazo[1,2-a]pyridine-3-carbonitrile]	6.67	0.001
Cc1cc(-c2n[nH]c(C(C)C)c2-c2ccc3ncc(C(N)=O)n3c2)ccc1F [Example 79, 6-(3-(4-fluoro-3-methylphenyl)-5-isopropyl-1H-pyrazol-4-yl)imidazo[1,2-a]pyridine-3-carboxamide]	0.136	0.001
N#Cc1cnc2ccc(-c3c(-c4ccc(F)cc4)n[nH]c3C3CC3)cn12 [Example 84, 6-(5-cyclopropyl-3-(4-fluorophenyl)-1H-pyrazol-4-yl)imidazo[1,2-a]pyridine-3-carbonitrile]	2.68	0.003
Fc1ccc(-c2n[nH]c(C3CC3)c2-c2ccc3nccn3c2)cc1 [Example 86, 6-(5-cyclopropyl-3-(4-fluorophenyl)-1H-pyrazol-4-yl)imidazo [1,2-a]pyridine]	14.6	0.004
Fc1ccc(-c2n[nH]c(C3CC3)c2-c2ccc3nccn3n2)cc1 [Example 87, 6-(5-cyclopropyl-3-(4-fluorophenyl)-1H-pyrazol-4-yl)imidazo [1,2-b]pyridazine]	6.9	0.002
O=C(NC1CC1)c1cnc2ccc(-c3c(-c4ccc(F)cc4)n[nH]c3C3CC3)cn12 [Example 92, N-cyclopropyl-6-(5-cyclopropyl-3-(4-fluorophenyl)-1H-pyrazol-4-yl)imidazo[1,2-a]pyridine-3-carboxamide]	2.65	0.001
Cn1nc(-c2ccc(F)cc2)c(-c2ccc3ncc(C(N)=O)n3c2)c1C1CC1 [Example 94, 6-(5-cyclopropyl-3-(4-fluorophenyl)-1-methyl-1H-pyrazol-4-yl)imidazo[1,2-a]pyridine-3-carboxamide]	0.806	0.001
NC(=O)c1cnc2ccc(-c3c(-c4ccc(Cl)cc4)n[nH]c3C3CC3)cn12 [Example 97, 6-(3-(4-chlorophenyl)-5-cyclopropyl-1H-pyrazol-4-yl)imidazo[1,2-a]pyridine-3-carboxamide]	6.36	0.001
Cc1cc(-c2n[nH]c(C3CC3)c2-c2ccc3ncc(C#N)n3c2)ccc1F [Example 99, 6-(5-cyclopropyl-3-(4-fluoro-3-methylphenyl)-1H-pyrazol-4-yl)imidazo[1,2-a]pyridine-3-carbonitrile]	2.98	0.001
Cc1cc(-c2n[nH]c(C3CC3)c2-c2ccc3ncc(C(N)=O)n3c2)ccc1F [Example 100, 6-(5-cyclopropyl-3-(4-fluoro-3-methylphenyl)-1H-pyrazol-4-yl)imidazo[1,2-a]pyridine-3-carboxamide]	0.094	0.001
NC(=O)c1cnc2ccc(-c3c(-c4ccc(F)cc4)n[nH]c3C(F)(F)F)cn12 [Example 106, 6-(3-(4-fluorophenyl)-5-(trifluoromethyl)-1H-pyrazol-4-yl)imidazo[1,2-a]pyridine-3-carboxamide]	6.66	0.001
